Measured values reported in PMC7253177, “Gain of channel function and modified gating properties in TRPM3 mutants causing intellectual disability and epilepsy” (eLife, 2020).

Biological target: T1, WT human TRPM3 (Homo sapiens, UniProt Q9HCF6)
T1 construct: expressed in transfected cells; host or cells: HEK293T
T1 sequence (Q9HCF6 1-1325 isoform Q9HCF6-10): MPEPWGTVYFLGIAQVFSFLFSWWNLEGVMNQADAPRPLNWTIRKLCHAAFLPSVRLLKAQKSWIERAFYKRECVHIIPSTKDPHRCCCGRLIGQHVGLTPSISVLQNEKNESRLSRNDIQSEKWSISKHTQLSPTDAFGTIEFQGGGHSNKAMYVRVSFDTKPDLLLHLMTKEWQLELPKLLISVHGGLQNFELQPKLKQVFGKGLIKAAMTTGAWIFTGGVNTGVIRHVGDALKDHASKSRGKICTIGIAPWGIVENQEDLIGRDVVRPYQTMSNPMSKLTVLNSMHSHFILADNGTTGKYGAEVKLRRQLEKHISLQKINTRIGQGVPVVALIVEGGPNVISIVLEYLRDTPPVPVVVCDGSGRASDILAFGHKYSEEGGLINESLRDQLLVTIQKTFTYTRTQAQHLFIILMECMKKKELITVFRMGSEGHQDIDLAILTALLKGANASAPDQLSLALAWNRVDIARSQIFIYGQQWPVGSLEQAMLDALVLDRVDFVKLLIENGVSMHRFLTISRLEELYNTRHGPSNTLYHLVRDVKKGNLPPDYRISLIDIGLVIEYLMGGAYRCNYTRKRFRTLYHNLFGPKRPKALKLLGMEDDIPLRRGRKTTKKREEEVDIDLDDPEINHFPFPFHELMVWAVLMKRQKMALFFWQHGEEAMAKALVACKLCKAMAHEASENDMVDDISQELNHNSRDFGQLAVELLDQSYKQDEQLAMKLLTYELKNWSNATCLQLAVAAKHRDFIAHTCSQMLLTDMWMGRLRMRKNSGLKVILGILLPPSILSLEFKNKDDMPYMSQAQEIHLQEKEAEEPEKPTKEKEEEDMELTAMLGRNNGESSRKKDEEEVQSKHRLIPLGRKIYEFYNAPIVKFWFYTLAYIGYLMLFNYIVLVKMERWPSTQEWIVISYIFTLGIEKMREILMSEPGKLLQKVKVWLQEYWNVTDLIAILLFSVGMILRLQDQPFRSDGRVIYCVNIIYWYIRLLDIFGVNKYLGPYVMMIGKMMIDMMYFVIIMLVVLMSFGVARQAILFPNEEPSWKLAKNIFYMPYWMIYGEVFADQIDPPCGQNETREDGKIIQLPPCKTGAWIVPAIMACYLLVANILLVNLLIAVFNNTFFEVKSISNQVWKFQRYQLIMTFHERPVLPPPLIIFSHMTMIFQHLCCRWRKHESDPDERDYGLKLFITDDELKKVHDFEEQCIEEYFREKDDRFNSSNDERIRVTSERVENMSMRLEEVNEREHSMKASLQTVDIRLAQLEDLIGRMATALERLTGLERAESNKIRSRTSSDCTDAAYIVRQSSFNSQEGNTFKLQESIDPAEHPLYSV
Experiment: Fura-2-based calcium imaging, HEK293T cells transfected with WT hTRPM3
Type: cell-based
Protocol: HEK293T cells ([Graham et al., 1977]) were cultured as described previously ([Vriens et al., 2007]) and used up in passage number 14. HEK293T cells were tested for the lack of mycoplasma and transiently transfected with 2 µg of DNA using TransIT transfection reagent (Mirus) 36–48 hr before the measurements. In case of co-cultures a ratio of 1:1 between hTRPM3-YFP WT and mutants-YFP DNA was used.
Changes in intracellular calcium concentration were monitored using ratiometric Fura-2-based fluorimetry. Cells were loaded with 2 µM Fura-2-acetoxymethyl ester (Alexis Biochemicals) for 30 min at 37°C. Fluorescence was measured during alternating illumination at 340 and 380 nm using Eclipse Ti (Nikon) fluorescence microscopy system, and absolute calcium concentration was calculated from the ratio of the fluorescence signals at these two wavelengths (R = F340/F380) as [Ca^2+]=Km × (R-Rmin)/(Rmax-R), where Km, Rmin and Rmax were estimated from in vitro calibration experiments with known calcium concentrations. The bath solution contained (in mM) 138 NaCl, 5.4 KCl, 2 CaCl2, 2 MgCl2, 10 glucose, and 10 HEPES, pH 7.4. […] The chemical ligands were dissolved in bath solution from a stock diluted in DMSO.

Compound | PS concentration required to induce a detectable calcium response [µM] | Effect on basal [Ca2+]i (primidone 100 µM, isosakuranetin 50 µM)
pregnenolone sulfate [PS] | 10 | 
CCC1(c2ccccc2)C(=O)NCNC1=O [primidone] |  | reduced [Ca^2+]i
